One data set concerns brain tumors. In words: MRI scans of mice with brain tumors. The note with it: C57BL/6NCr mice, 0.05 or 0.1 mmol/kg. It counts as in vivo, mice (C57BL/6NCr). As for the experimental part:
Mice were dosed with Fe(TOB) at 0.05 mmol/kg Fe(TOB) complex or 0.1 mmol/kg Fe(TOB) complex.

Another data set deals with mice. In words: In vivo MRI contrast enhancement in mice at 4.7 T. Also noted: species or system mouse. As for the experimental part:
The necessary solubility of the complexes depends on their effectiveness in producing contrast. For Fe(III) T1 contrast agents that have good relaxivity, the complexes need 100 μM-2 mM solubility. However, other additives such as human serum albumin (has) or meglumine may be used to increase solubility and/or increase relaxivity. Solubility is generally measured in aqueous solution at near neutral pH (e.g., 6.5 to 7.5, including all 0.1 pH values and ranges therebetween) in 100 mM NaCl with 25 mM carbonate and 0.4 mM phosphate. The dose of the composition to be used will necessarily be dependent upon the needs of the individual to whom the composition of the disclosure is to be administered. These factors include, but are not necessarily limited to the weight, age, sex, and medical history of the individual. Shown in FIGS. 15, 16, 17, 18, 19, 20 are data from in vivo MRI studies done in mice. The contrast agent, Fe(TOB) was injected at 0.20 mL of 6.3 mM Fe-TOB-HSA (10.5 mg of HAS or two equivalents of megluamine). […] In vivo imaging in mice. Efficacy of the Fe(III) complexes for in vivo contrast enhancement was studied on at 4.7 T Bruker preclinical MRI in a mouse model (BABC/cJ, Jackson Laboratory). Sealed phantoms were included for imaging sessions for signal normalization. Prior to administration of contrast agents, scans were acquired to serve as baseline values of enhancement. […] Compounds were injected intravenously via tail vein at a dose of 50 μmol [Fe]/kg and MR data were acquired continuously for up to 1 hour after injection to study distribution and clearance kinetics. Thus, 0.2 mL of a 6 mM stock solution was injected into the mouse or 0.05 mmol/Kg. Additional scans were acquired at 3 and 6 hours post-injection to characterize slower clearance rates by the biliary system. The FDA-approved […] contrast agent gadopentetate dimeglumine (Gd-DTPA, Magnevist®) was injected into a separate cohort of mice at 50 μmol [Gd]/kg for comparison. For SPGR datasets, signal intensities were normalized to the phantoms and signal increase for each organ was measured, as well as an increase in contrast-to-noise ratios as compared to back muscle. Fe(III) concentrations were estimated by calculating the increase in T1 rates and dividing by the compound's relaxivity value as determined in vitro.

Data set [1] can be described thus: Phantom (in vitro) MR imaging at 4.7 T: T1 and T2 relaxivity. The note with it: neutral pH, Hepes buffer, 37° C. It counts as physicochemical. The procedure:
Eq. 2 predicts that greater numbers of bound water molecules and rapid ligand exchange rate constants (short lifetimes for bound water (Tm)) are advantageous. […] There is an analogous relationship for second-sphere waters although the number and residence time is not well defined. The R1 and R2 relaxivity (from T1 and T2 relaxation rate constants at 4.7 T at 37° C. is shown for several complexes in FIG. 13 and FIG. 14. Data on a 3 Tesla MRI scanner are shown in FIG. 21. Table 1 summarizes R1 and R2 relaxivity data for several Fe(III) complexes.
Preparation of Samples for Phantom MR Imaging: Samples for phantom imaging experiments contained 50-500 μM complex, 20 mM HEPES and 100 mM NaCl. […]
Phantom (in vitro) imaging at 4.7 T. MRI acquisitions were performed using a General Electric 4.7T/33 cm horizontal bore magnet (GE NMR instruments, Fremont, CA) incorporating AVANCE digital electronics (Bruker BioSpec platform with ParaVision v 3.0.2 acquisition software, Bruker Medical, Billerica, MA). […] Signal intensities at each repetition time were sampled by taking the mean intensity within regions of interest (ROI's) using commercially available image processing software (Analyze 7.0, AnalyzeDirect, Overland, KS), and R1 and SMAX were calculated by nonlinear fitting of the equation using Matlab's Curve Fitting Toolbox (Matlab 7.0, MathWorks Inc., Natick, MA). […]

The conditions of data set [2]: stated in text without conditions; cited from earlier work.
The nature of data set [3]: Benzoate oxidation with peroxide and ascorbate (ROS production). The note with it: 50 μM complex, 50 μM H2O2, 50 μM ascorbate, pH 7.2; [Fe(EDTA)]− oxidation set at 100%. As for the experimental part:
Benzoate oxidation with 50 μM complex, 50 μM H2O2 and 50 μM ascorbate at pH 7.2. [Fe(EDTA)]^− oxidation is set at 100%.
It is desirable that the Fe(III) complex remain in the trivalent oxidation state and not be reduced by, for example, peroxide, superoxide, ascorbate, or by glutathione at concentrations present in the extracellular medium of cells such as, for example, mammalian cells (e.g., human cells). Normally, a redox potential more negative than zero mV (<0 mV) versus NHE is sufficient. If the complex were to be reduced to Fe(II) and the Fe(II) complex and the complex has a positive redox potential versus NHE, reactive oxygen species may be produced, for example, as shown in FIG. 8. For example, [Fe(EDTA)]—has a redox potential of approximately 300 mV and produces ROS as shown by the assay in FIG. 11.

[4] abbreviates: 50 μmol/kg i.v., 4.7 T, compared with the other agents.

SMILES strings stand for the structures.

For the compound `CC([O-])CN1CCN(Cc2ccccc2)CCN(CC(C)[O-])CC1.[Fe+3]` (stereo not drawn) [Fe(TOB)], the “Contrast of brain tumors” value in the data set with brain tumors was “produces contrast of brain tumors in mice”. In the data set with mice (setting [4]), the “T1 contrast in kidneys” value is “greater contrast than Gd(DTPA) in kidney and liver”; the “T1 contrast in liver” value was “greater contrast than Gd(DTPA) in kidney and liver”. In the data set with mice (50 μmol/kg, 30′ and 4 h post-injection), the “Elimination by the biliary system (gall bladder enhancement)” value is “strong enhancement of the gall bladder”. In addition, in the data set on mice (50 μmol/kg, vs. Gd-DTPA), the “Removal from the blood” value is “faster removal from the blood”; the “Uptake in kidneys and liver” value is given as “Greater uptake”. The “Tissue with highest signal (T1 relaxivity differences in tissue)” value in the data set with mice (0.20 mL of 6.3 mM Fe-TOB-HSA, 30 minute period) is “highest signal is observed in the kidney cortex”. Besides, in data set [1] (4.7 Tesla MRI scanner, complex alone), the “R1 (T1 relaxivity)” value is 2.5 mM⁻¹ s⁻¹. Further, the “R1 with HSA” value in data set [1] (4.7 Tesla, with human serum albumin) turned out to be 3.4 mM⁻¹ s⁻¹.
As for `CNC[C@H](O)[C@@H](O)[C@H](O)[C@H](O)CO.CNC[C@H](O)[C@@H](O)[C@H](O)[C@H](O)CO.O=C([O-])CN(CCN(CC(=O)[O-])CC(=O)O)CCN(CC(=O)[O-])CC(=O)O.[Gd+3]` [Gd(DTPA), gadopentetate dimeglumine, reference compound], the “T1 contrast in blood” value in the data set with mice (setting [4]) is “produces larger contrast in blood”.
As to `O=C([O-])CN(CCN(CC(=O)[O-])CC(=O)[O-])CC(=O)[O-].[Fe+3]` [[Fe(EDTA)]^−], the redox potential result in data set [2] is “approximately 300 mV”. For the same compound, the “Benzoate oxidation / ROS production” value in data set [3] is on record as “produces ROS”.

Source of the values: patent US12534487B2, “Compounds for use as iron(III) MRI contrast agents” (The Research Foundation for The State University of New York, priority 2017, dated 2026).
